Experimental data: patent US12180207B2 (ARRAY BIOPHARMA INC., priority 2018, dated 2024)

biological target: HEK-293 cells transfected with dox-inducible human wild type FGFR1 (Homo sapiens (Human), UniProt P11362); assay: FGFR1 pFGFR cell assay (ELISA); format: cell-based; conditions: HEK-293 dox-inducible FGFR1, 1 hour compound
Protocol: FGFR1 pFGFR Cell Assay: • HEK-293 cells transfected with dox-inducible human wild type FGFR1 (SEQ ID NO: 1) were plated in a collagen or poly-D-lysine coated 96 well flat bottom plates at 4×10^5 cells/well in complete DMEM medium containing 10% FBS and 1 μg/ml doxycycline and allowed to attach for 24 h at 37° C., 5% CO2. Cells were treated with compound using 1:3 serial dilutions with a maximum final concentration of 5 μM. Compound was incubated on cells for 1 hour at 37° C., 5% CO2. Medium was removed, and cells were lysed with lysis buffer containing phosphatase and protease inhibitors. Phospho FGFR1 was measured by ELISA (R&D Systems cat. no. DYC5079 or Cell Signaling Technology cat. no. 12909). The ELISA captures total FGFR1 and detects total phospho tyrosine. Optical density was measured for each well using a Versamax reader at a wavelength of 450 nm. 100 POC was determined using no test compounds and 0 POC was determined using a control compound. The POC values were fit to a 4-parameter logistic curve as a function of the concentration of the compound, and the IC50 value is the point where the curve crosses 50 POC.

Sequence of HEK-293 cells transfected with dox-inducible human wild type FGFR1 (P11362 22-822): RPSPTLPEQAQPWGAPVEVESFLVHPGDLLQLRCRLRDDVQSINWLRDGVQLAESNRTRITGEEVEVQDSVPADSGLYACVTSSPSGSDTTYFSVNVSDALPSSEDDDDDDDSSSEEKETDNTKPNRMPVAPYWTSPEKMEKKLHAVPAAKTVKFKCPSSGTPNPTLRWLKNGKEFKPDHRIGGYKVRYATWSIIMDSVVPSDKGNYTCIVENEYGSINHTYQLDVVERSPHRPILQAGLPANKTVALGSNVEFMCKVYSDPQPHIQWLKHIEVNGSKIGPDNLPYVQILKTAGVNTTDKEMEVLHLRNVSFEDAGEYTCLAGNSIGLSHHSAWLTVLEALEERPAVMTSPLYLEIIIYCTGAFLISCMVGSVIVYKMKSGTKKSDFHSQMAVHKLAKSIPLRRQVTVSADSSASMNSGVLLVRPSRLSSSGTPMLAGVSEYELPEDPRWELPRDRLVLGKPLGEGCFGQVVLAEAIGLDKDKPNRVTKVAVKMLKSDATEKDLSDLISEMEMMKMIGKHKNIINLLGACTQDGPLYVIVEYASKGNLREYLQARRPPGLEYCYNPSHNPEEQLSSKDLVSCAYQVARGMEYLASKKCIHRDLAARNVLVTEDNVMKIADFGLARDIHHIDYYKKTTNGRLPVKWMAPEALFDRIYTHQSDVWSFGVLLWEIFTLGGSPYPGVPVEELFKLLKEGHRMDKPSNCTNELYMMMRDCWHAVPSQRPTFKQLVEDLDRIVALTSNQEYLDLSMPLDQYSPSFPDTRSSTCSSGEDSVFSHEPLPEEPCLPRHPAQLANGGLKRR

Row | Compound | IC50
1 | C=CC(=O)Nc1ccc(C(=O)N2CCC(n3cc(-c4cc(OC)c5c(C#N)cnn5c4)cn3)CC2)cc1 [Example 177, N-(4-(4-(4-(3-cyano-4-methoxypyrazolo[1,5-a]pyridin-6-yl)-1H-pyrazol-1-yl)piperidine-1-carbonyl)phenyl)acrylamide] | 123 nM

biological target: HEK-293 cells transfected with dox-inducible human wild type FGFR2 (Homo sapiens (Human), UniProt P21802); assay: FGFR2 pFGFR cell assay (ELISA); format: cell-based; conditions: HEK-293 dox-inducible FGFR2, 1 hour compound, 30 ng/ml FGF-acidic
Protocol: FGFR2 pFGFR Cell Assay: • HEK-293 cells transfected with dox-inducible human wild type FGFR2 (SEQ ID NO: 3) were plated in a collagen or poly-D-lysine coated 96 well flat bottom plates at 4×10^5 cells/well in complete DMEM medium containing 10% FBS and 1 μg/ml doxycycline and allowed to attach for 24 h at 37° C., 5% CO2. Cells were treated with compound using 1:3 serial dilutions with a maximum final concentration of 5 μM. Compound was incubated on cells for 1 hour at 37° C., 5% CO2. Cells were then stimulated with a final concentration of 30 ng/ml human FGF-acidic (R&D Systems Cat number 232-FA/CF) for 5 minutes at 37° C., 5% CO2. Medium was removed and cells were lysed with lysis buffer containing phosphatase and protease inhibitors. Phospho FGFR2 was measured by ELISA (R&D Systems cat. no. DYC684). The ELISA captures total FGFR2 and detects total phospho tyrosine. Optical density was measured for each well using a Versamax reader at a wavelength of 450 nm. 100 POC was determined using no test compounds and 0 POC was determined using a control compound. The POC values were fit to a 4-parameter logistic curve as a function of the concentration of the compound, and the IC50 value is the point where the curve crosses 50 POC.

Sequence of HEK-293 cells transfected with dox-inducible human wild type FGFR2 (P21802 22-821): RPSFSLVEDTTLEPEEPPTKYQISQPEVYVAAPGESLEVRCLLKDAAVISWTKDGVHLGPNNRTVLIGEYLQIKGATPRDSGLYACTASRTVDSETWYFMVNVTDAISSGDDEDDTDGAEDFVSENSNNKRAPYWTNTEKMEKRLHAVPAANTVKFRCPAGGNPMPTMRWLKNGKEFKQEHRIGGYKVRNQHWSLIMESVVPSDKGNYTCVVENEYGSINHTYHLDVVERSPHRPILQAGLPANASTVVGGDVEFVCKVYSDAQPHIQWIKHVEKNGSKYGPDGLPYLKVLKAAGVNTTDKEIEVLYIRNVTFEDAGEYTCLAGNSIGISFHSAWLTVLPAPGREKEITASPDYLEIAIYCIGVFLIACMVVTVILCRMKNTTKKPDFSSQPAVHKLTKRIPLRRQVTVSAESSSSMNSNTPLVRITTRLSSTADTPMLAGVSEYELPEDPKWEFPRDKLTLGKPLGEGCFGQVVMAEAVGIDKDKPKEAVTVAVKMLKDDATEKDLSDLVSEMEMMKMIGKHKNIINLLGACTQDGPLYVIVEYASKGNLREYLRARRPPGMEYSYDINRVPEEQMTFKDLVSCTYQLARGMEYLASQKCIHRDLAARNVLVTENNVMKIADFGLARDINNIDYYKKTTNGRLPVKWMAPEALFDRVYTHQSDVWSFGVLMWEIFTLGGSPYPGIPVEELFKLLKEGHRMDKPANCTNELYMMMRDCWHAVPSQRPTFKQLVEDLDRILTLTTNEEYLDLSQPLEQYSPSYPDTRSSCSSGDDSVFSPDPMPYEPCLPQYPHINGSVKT

Row | Compound | IC50
2 | C=CC(=O)N1CC(C(=O)N2CCC(n3cc(-c4cc(OC)c5c(C#N)cnn5c4)cn3)CC2)C1(C)C (centres unmarked) [Example 43, 6-(1-(1-(1-acryloyl-2,2-dimethylazetidine-3-carbonyl)piperidin-4-yl)-1H-pyrazol-4-yl)-4-methoxypyrazolo[1,5-a]pyridine-3-carbonitrile] | 79 nM
3 | C=CC(=O)N1CC(C(=O)N2C3CCC2CN(c2ccc(-c4cc(OC)c5c(C#N)cnn5c4)cn2)C3)C1 [Example 50, 6-(6-(8-(1-acryloylazetidine-3-carbonyl)-3,8-diazabicyclo[3.2.1]octan-3-yl)pyridin-3-yl)-4-methoxypyrazolo[1,5-a]pyridine-3-carbonitrile] | 178 nM
4 | C=CC(=O)N1CC(C(=O)N2CC3CCC(C2)N3c2ccc(-c3cc(OC)c4c(C#N)cnn4c3)cn2)C1 [Example 51, 6-(6-(3-(1-acryloylazetidine-3-carbonyl)-3,8-diazabicyclo[3.2.1]octan-8-yl)pyridin-3-yl)-4-methoxypyrazolo[1,5-a]pyridine-3-carbonitrile] | 433 nM
5 | C=CC(=O)N1CC(C(=O)N2C3CC2CN(c2ccc(-c4cc(OC)c5c(C#N)cnn5c4)cn2)C3)C1 [Example 52, 6-(6-(6-(1-acryloylazetidine-3-carbonyl)-3,6-diazabicyclo[3.1.1]heptan-3-yl)pyridin-3-yl)-4-methoxypyrazolo[1,5-a]pyridine-3-carbonitrile] | 766 nM
6 | C=CC(=O)N1CC(F)(C(=O)N2CCC(n3ncc(-c4cc(OC)c5c(C#N)cnn5c4)c3C)CC2)C1 [Example 85, 6-(1-(1-(1-acryloyl-3-fluoroazetidine-3-carbonyl)piperidin-4-yl)-5-methyl-1H-pyrazol-4-yl)-4-methoxypyrazolo[1,5-a]pyridine-3-carbonitrile] | 61 nM
7 | C=CC(=O)N1CC(OC)(C(=O)N2CCC(n3ncc(-c4cc(OC)c5c(C#N)cnn5c4)c3C)CC2)C1 [Example 88, 6-(1-(1-(1-acryloyl-3-methoxyazetidine-3-carbonyl)piperidin-4-yl)-5-methyl-1H-pyrazol-4-yl)-4-methoxypyrazolo[1,5-a]pyridine-3-carbonitrile] | 143 nM
8 | C=CC(=O)N1CC(CN2CCC(n3ncc(-c4cc(OC)c5c(C#N)cnn5c4)c3C)CC2)C1 [Example 89, 6-(1-(1-((1-acryloylazetidin-3-yl)methyl)piperidin-4-yl)-5-methyl-1H-pyrazol-4-yl)-4-methoxypyrazolo[1,5-a]pyridine-3-carbonitrile] | 96 nM
9 | C=CC(=O)N1CC(C)(CN2CCC(n3ncc(-c4cc(OC)c5c(C#N)cnn5c4)c3C)CC2)C1 [Example 90, 6-(1-(1-((1-acryloyl-3-methylazetidin-3-yl)methyl)piperidin-4-yl)-5-methyl-1H-pyrazol-4-yl)-4-methoxypyrazolo[1,5-a]pyridine-3-carbonitrile] | 109 nM
10 | C=CC(=O)N1CC(CN2CCC(n3ncc(-c4cc(OC)c5c(C#N)cnn5c4)c3C)CC2)(OC)C1 [Example 91, 6-(1-(1-((1-acryloyl-3-methoxyazetidin-3-yl)methyl)piperidin-4-yl)-5-methyl-1H-pyrazol-4-yl)-4-methoxypyrazolo[1,5-a]pyridine-3-carbonitrile] | 108 nM
11 | C=CS(=O)(=O)Nc1cccc(C(=O)N2CCC(n3cc(-c4cc(OC)c5c(C#N)cnn5c4)cn3)CC2)c1 [Example 188, N-(3-(4-(4-(3-cyano-4-methoxypyrazolo[1,5-a]pyridin-6-yl)-1H-pyrazol-1-yl)piperidine-1-carbonyl)phenyl)eth-enesulfonamide] | 160 nM
